# In patent publication US6369069B1 (Aventis Pharma Deutschland GmbH, priority 1998, dated 2002):
# Test system: Na^+-dependent Cl^−/HCO3^− exchanger (NCBE)
# Assay: Inhibition of the Na+-dependent Cl−/HCO3− exchanger (NCBE) in human endothelial cells (pHi recovery, BCECF fluorescence, FLIPR)
# Type: cell-based
# Conditions: 10 μM
# Experimental: Inhibition of the Na^+-dependent Cl^−/HCO3^− exchanger (NCBE) in human endothelial cells
# Human endothelial cells (ECV-304) were detached form culture flasks with the aid of trypsin/EDTA buffer (0.05/0.02% in phosphate buffer) and, after centrifugation (100 g, 5 min), taken up in a buffered saline solution (mmol/l: 115 NaCl, 20 NH4Cl, 5 KCl, 1 CaCl2, 1 MgSO4, 20 N-(2-hydroxyethyl)-piperazine-N[…]-2-ethanesulfonic acid (HEPES), 5 glucose and 1 g/l of bovine serum albumin; pH 7.4). This cell suspension was incubated at 37 °C. for 20 min with 5 μM BCECF acetoxymethyl ester. The cells were then washed and resuspended in a sodium- and bicarbonate-free buffer solution (mmol/l: 5 HEPES, 133.8 choline chloride, 4.7 KCl, 1.25 MgCl2, 0.97 K2HPO4, 0.23 KH2PO4, 5 glucose; pH 7.4).
# For the subsequent fluorescence measurement in the FLIPR (Fluorescent Imaging Plate Reader), 100 μl of this cell suspension in each case containing 20,000 cells were added by pipette per well of a 96-well microtiter plate and this microtiter plate was centrifuged (100 g, 5 min). In the FLIPR, 100 μl of buffer solution in each case were then removed from a further prepared microtiter plate and added by pipette to each of the 96 wells of the measuring plate. In this case, for a 100% control, i.e. a recovery of the intracellular pH (pHi) by means of the NCBE, a bicarbonate- and sodium-containing buffer solution (mmol/l: 5 HEPES, 93.8 NaCl, 40 NaHCO3, 4.7 KCl, 1.25 CaCl2, 1.25 MgCl2, 0.97 Na2HPO4, 0.23 NaH2PO4, 5 glucose; pH 7.4) which contained 50 μM HOE 642 was used. For a 0% control, i.e. no pHi recovery at all, a bicarbonate-free, sodium-containing buffer solution (mmol/l: 5 HEPES, 133.8 NaCl, 4.7 KCl, 1.25 CaCl2, 1.25 MgCl2, 0.97 Na2HPO4, 0.23 NaH2PO4, 5 glucose; pH 7.4) to which 50 μM HOE 642 were also added was employed. The compounds according to the invention were added in various concentrations of the sodium- and bicarbonate-containing solution. After addition of the buffer solutions to the dye-loaded acidified cells situated in the measuring plate, the increase in the fluorescence intensity which corresponded to an increase in the pHi was determined in each well of the microtiter plate.
# The kinetics were in this case recorded at 35° C. over a period of 2 minutes. The increase in the fluorescence intensities for different concentrations of the compounds according to the invention was related to the two controls and from this the inhibitory action of the substances was determined.
row,Compound,Residual activity % of the NCBE at 10 μM [%]
1,CCCC(=O)N(CCO)Cc1ccc(-c2ccccc2S(=O)(=O)NC#N)cc1 [Example 2],78.1
2,CCCC(=O)N(Cc1ccc(OC)cc1)Cc1ccc(-c2ccccc2S(=O)(=O)NC#N)cc1 [Example 3],80.9
3,CCCC(=O)N(Cc1ccc(-c2ccccc2S(=O)(=O)NC#N)cc1)C1CCCCC1 [Example 6],84.5
4,N#CNS(=O)(=O)c1ccccc1-c1ccc(CN(Cc2ccccc2)C(=O)CCC2CCCCC2)cc1 [Example 7],33.0
5,N#CNS(=O)(=O)c1ccccc1-c1ccc(CN(CCO)C(=O)CCC2CCCCC2)cc1 [Example 8],86.7
6,COc1ccc(CN(Cc2ccc(-c3ccccc3S(=O)(=O)NC#N)cc2)C(=O)CCC2CCCCC2)cc1 [Example 9],86.6
7,N#CNS(=O)(=O)c1ccccc1-c1ccc(CN(Cc2ccc(Cl)cc2)C(=O)CCC2CCCCC2)cc1 [Example 10],84.9
8,N#CNS(=O)(=O)c1ccccc1-c1ccc(CN(C(=O)CCC2CCCCC2)C2CCCCC2)cc1 [Example 12],92.9
9,N#CNS(=O)(=O)c1ccccc1-c1ccc(CN(Cc2ccccc2)C(=O)C2CCCCC2)cc1 [Example 13],74.7
10,N#CNS(=O)(=O)c1ccccc1-c1ccc(CN(CCO)C(=O)C2CCCCC2)cc1 [Example 14],88.7
11,COc1ccc(CN(Cc2ccc(-c3ccccc3S(=O)(=O)NC#N)cc2)C(=O)C2CCCCC2)cc1 [Example 15],67.6
12,N#CNS(=O)(=O)c1ccccc1-c1ccc(CN(Cc2ccc(Cl)cc2)C(=O)C2CCCCC2)cc1 [Example 16],56.4
13,COc1cccc(CC(=O)N(Cc2ccccc2)Cc2ccc(-c3ccccc3S(=O)(=O)NC#N)cc2)c1 [Example 19],25.9
14,COc1cccc(CC(=O)N(CCO)Cc2ccc(-c3ccccc3S(=O)(=O)NC#N)cc2)c1 [Example 20],37.1
15,COc1ccc(CN(Cc2ccc(-c3ccccc3S(=O)(=O)NC#N)cc2)C(=O)Cc2cccc(OC)c2)cc1 [Example 21],52.3
16,COc1cccc(CC(=O)N(Cc2ccc(-c3ccccc3S(=O)(=O)NC#N)cc2)C2CCCCC2)c1 [Example 24],92.1
17,N#CNS(=O)(=O)c1ccccc1-c1ccc(CN(Cc2ccccc2)C(=O)Cc2cccs2)cc1 [Example 25],16.6
18,N#CNS(=O)(=O)c1ccccc1-c1ccc(CN(CCO)C(=O)Cc2cccs2)cc1 [Example 26],47.6
19,COc1ccc(CN(Cc2ccc(-c3ccccc3S(=O)(=O)NC#N)cc2)C(=O)Cc2cccs2)cc1 [Example 27],35.5
20,N#CNS(=O)(=O)c1ccccc1-c1ccc(CN(Cc2ccc(Cl)cc2)C(=O)Cc2cccs2)cc1 [Example 28],95.2
21,N#CNS(=O)(=O)c1ccccc1-c1ccc(CN(C(=O)Cc2cccs2)C2CCCCC2)cc1 [Example 30],95.2
22,CC(C)(C)c1ccc(C(=O)N(Cc2ccccc2)Cc2ccc(-c3ccccc3S(=O)(=O)NC#N)cc2)cc1 [Example 31],52.2
23,CC(C)(C)c1ccc(C(=O)N(CCO)Cc2ccc(-c3ccccc3S(=O)(=O)NC#N)cc2)cc1 [Example 32],68.0
24,COc1ccc(CN(Cc2ccc(-c3ccccc3S(=O)(=O)NC#N)cc2)C(=O)c2ccc(C(C)(C)C)cc2)cc1 [Example 33],67.2
25,N#CNS(=O)(=O)c1ccccc1-c1ccc(CN(Cc2ccccc2)C(=O)c2ccccc2F)cc1 [Example 37],52.0
26,N#CNS(=O)(=O)c1ccccc1-c1ccc(CN(CCO)C(=O)c2ccccc2F)cc1 [Example 38],66.7
27,COc1ccc(CN(Cc2ccc(-c3ccccc3S(=O)(=O)NC#N)cc2)C(=O)c2ccccc2F)cc1 [Example 39],51.3

row,Compound,Residual activity % of the NCBE at 10 μM [%]
1,C=CCOC(=O)N(Cc1ccccc1)Cc1ccc(-c2ccccc2S(=O)(=O)NC#N)cc1 [Example 43],41.6
2,C=CCOC(=O)N(CCO)Cc1ccc(-c2ccccc2S(=O)(=O)NC#N)cc1 [Example 44],82.6
3,C=CCOC(=O)N(Cc1ccc(OC)cc1)Cc1ccc(-c2ccccc2S(=O)(=O)NC#N)cc1 [Example 45],80.1
4,C=CCOC(=O)N(Cc1ccc(Cl)cc1)Cc1ccc(-c2ccccc2S(=O)(=O)NC#N)cc1 [Example 46],52.2
5,COc1cc(C(=O)N(Cc2ccccc2)Cc2ccc(-c3ccccc3S(=O)(=O)NC#N)cc2)cc(OC)c1OC [Example 49],75.8
6,COc1cc(C(=O)N(Cc2ccc(Cl)cc2)Cc2ccc(-c3ccccc3S(=O)(=O)NC#N)cc2)cc(OC)c1OC [Example 52],59.9
7,N#CNS(=O)(=O)c1ccccc1-c1ccc(CN(Cc2ccccc2)C(=O)c2ccccc2Cl)cc1 [Example 55],29.3
8,N#CNS(=O)(=O)c1ccccc1-c1ccc(CN(CCO)C(=O)c2ccccc2Cl)cc1 [Example 56],69.0
9,COc1ccc(CN(Cc2ccc(-c3ccccc3S(=O)(=O)NC#N)cc2)C(=O)c2ccccc2Cl)cc1 [Example 57],82.1
10,N#CNS(=O)(=O)c1ccccc1-c1ccc(CN(Cc2ccc(Cl)cc2)C(=O)c2ccccc2Cl)cc1 [Example 58],59.4
11,N#CNS(=O)(=O)c1ccccc1-c1ccc(CN(Cc2ccccc2)C(=O)c2ccccc2)cc1 [Example 61],56.6
12,CC(=O)N(Cc1ccc(Cl)cc1)Cc1ccc(-c2ccccc2S(=O)(=O)NC#N)cc1 [Example 62],94.5
13,C/C=C/C(=O)N(Cc1ccc(OC)cc1)Cc1ccc(-c2ccccc2S(=O)(=O)NC#N)cc1 [Example 64],88.0
14,CCCCC(=O)N(Cc1ccc(Cl)cc1)Cc1ccc(-c2ccccc2S(=O)(=O)NC#N)cc1 [Example 65],80.0
15,N#CNS(=O)(=O)c1ccccc1-c1ccc(CN(Cc2ccc(Cl)cc2)C(=O)CCc2ccccc2)cc1 [Example 66],83.1
16,Cc1ccc(C(=O)N(CCO)Cc2ccc(-c3ccccc3S(=O)(=O)NC#N)cc2)cc1 [Example 68],94.4
17,COc1ccc(CN(Cc2ccc(-c3ccccc3S(=O)(=O)NC#N)cc2)C(C)=O)cc1 [Example 69],95.4
18,COc1ccc(CN(Cc2ccc(-c3ccccc3S(=O)(=O)NC#N)cc2)C(=O)c2ccc(C)cc2)cc1 [Example 70],94.7
19,N#CNS(=O)(=O)c1ccccc1-c1ccc(CN(Cc2ccccc2Cl)C(=O)c2cc3ccccc3s2)cc1 [Example 71],35.2
20,CC(C)CN(Cc1ccc(-c2ccccc2S(=O)(=O)NC#N)cc1)C(=O)c1cc2ccccc2s1 [Example 72],86.3
21,C[C@@H](c1ccccc1)N(Cc1ccc(-c2ccccc2S(=O)(=O)NC#N)cc1)C(=O)c1cc2ccccc2s1 [Example 73],61.0
22,COc1ccccc1CN(Cc1ccc(-c2ccccc2S(=O)(=O)NC#N)cc1)C(=O)c1cc2ccccc2s1 [Example 74],54.7
23,Cc1ccc(CN(Cc2ccc(-c3ccccc3S(=O)(=O)NC#N)cc2)C(=O)c2cc3ccccc3s2)cc1 [Example 75],80.3
24,COc1cccc(CN(Cc2ccc(-c3ccccc3S(=O)(=O)NC#N)cc2)C(=O)c2cc3ccccc3s2)c1 [Example 76],87.3
25,N#CNS(=O)(=O)c1ccccc1-c1ccc(CN(Cc2ccc3c(c2)OCO3)C(=O)c2cc3ccccc3s2)cc1 [Example 77],81.8
26,C[C@H](c1ccccc1)N(Cc1ccc(-c2ccccc2S(=O)(=O)NC#N)cc1)C(=O)c1cc2ccccc2s1 [Example 78],88.5
27,N#CNS(=O)(=O)c1ccccc1-c1ccc(CN(Cc2ccc(C(F)(F)F)cc2)C(=O)c2cc3ccccc3s2)cc1 [Example 79],61.7
